Reference: patent US6156700A, “3-(1,2-Benzisothiazol- and isoxazol-5-yl)-2,4(1H,3H)-pyrimidinedione or thione and 3-(1,2-benzisothiazol- and isoxazol-5-yl)-4(3H)-pyrimidinone or thione herbicidal agents” (American Cyanmid Company, priority 1998, dated 2000)

Key:
[1] = tested on: MOOVA Monochoria; assay: Postemergence weed control, flooded paddy (Table IV); format: in vivo, Monochoria vaginalis; design: scale not given here
How it was run: (§1)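 Weeds 3 to 5 cm tall and rice seedlings at the 1.5 to 2.5 leaf stage were flooded, water held 1.5 to 3 cm above soil. Compounds in 50/50 v/v aqueous/acetone went into the flood water at about 0.0313 to 0.500 kg/ha. Injury was rated visually three to four weeks later.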

[2] = tested on: ECHORC Watergrass (Calif.); assay: Preemergence weed control, flooded paddy (Table III); format: in vivo, Echinochloa oryzoides; design: scale not given here
How it was run: (§2)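 Seeds or propagules sown in silt loam under 1.5 to 3 cm standing flood water; compound in 50/50 aqueous/acetone pipetted into the water at about 0.0313 to 0.500 kg/ha active ingredient. Greenhouse-held; herbicidal effect rated on a scale 3-4 weeks after treatment.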

[3] = tested on: CYPIR Rice Flatsedge; assay: as above; format: in vivo, Cyperus iria; design: scale not given here
How it was run: as §2

[4] = tested on: Ragweed, Common, Ambrosia artemisifolia; assay: Postemergence herbicidal evaluation, AMBEL; format: in vivo, L.
How it was run: (§3)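 Visual 0–9 rating vs untreated control (stand, vigor, malformation, size, chlorosis, overall appearance), scored 4–5 wk post-spray. Two-week-old seedlings; compound in 50/50 acetone/water + 0.5% TWEEN 20, ~0.0157–0.500 kg/ha, 40 psi nozzle.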

[5] = tested on: Wheat, Winter, cv Riband, Triticum aestivum; assay: Postemergence herbicidal evaluation, TRZAWR; format: in vivo
How it was run: as §3

[6] = tested on: Velvetleaf, Abutilon theophrasti; assay: Preemergence herbicidal evaluation, ABUTH; format: in vivo, Medic.; settings: 0.2500 kg/ha
How it was run: (§4)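 Sow seeds in soil-filled cups; spray aqueous acetone compound solution at about 0.0156–0.500 kg/ha; keep on greenhouse benches with routine watering; after four to five weeks, rate visual injury 0–9 compared with control plants.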

[7] = tested on: Rice, Tebonnet, Oryza sativa; assay: Postemergence herbicidal evaluation, ORYSAT; format: in vivo, (L.) Tebonnet
How it was run: as §3

[8] = tested on: Foxtail, Green, Setaria viridis; assay: Postemergence herbicidal evaluation, SETVI; format: in vivo, (L.) Beau
How it was run: as §3

[9] = tested on: Galium, Galium aparine; assay: Postemergence herbicidal evaluation, GALAP; format: in vivo
How it was run: as §3

[10] = tested on: Morningglory Spp., Ipomoea Spp.; assay: Preemergence herbicidal evaluation, IPOSS; format: in vivo; settings: 0.2500 kg/ha
How it was run: as §4

[11] = tested on: MOOVA Monochoria; assay: Preemergence weed control, flooded paddy (Table III); format: in vivo, Monochoria vaginalis; design: scale not given here
How it was run: as §2

[12] = tested on: Barnyardgrass, Echinochloa crus-galli; assay: Preemergence herbicidal evaluation, ECHCG; format: in vivo, (L.) Beau; settings: 0.2500 kg/ha
How it was run: as §4

[13] = tested on: Ragweed, Common, Ambrosia artemisifolia; assay: Preemergence herbicidal evaluation, AMBEL; format: in vivo, L.; settings: 0.2500 kg/ha
How it was run: as §4

[14] = tested on: ECHORC Watergrass (Calif.); assay: Postemergence weed control, flooded paddy (Table IV); format: in vivo, Echinochloa oryzoides; design: scale not given here
How it was run: as §1

[15] = tested on: Corn, Field, Zea mays; assay: Preemergence herbicidal evaluation, ZEAMX; format: in vivo, L.; settings: 0.2500 kg/ha
How it was run: as §4

[16] = tested on: SAGPY Arrowhead (Pygmaea); assay: Preemergence weed control, flooded paddy (Table III); format: in vivo, Sagittaria pygmaea; design: scale not given here
How it was run: as §2

[17] = tested on: CYPIR Rice Flatsedge; assay: Postemergence weed control, flooded paddy (Table IV); format: in vivo, Cyperus iria; design: scale not given here
How it was run: as §1

[18] = tested on: Sicklepod, Cassia obtusifolia; assay: Postemergence herbicidal evaluation, CASOB; format: in vivo, L.
How it was run: as §3

Structure (SMILES): COC(=O)COc1ccc(C)cc1-c1nsc2ccc(-n3c(=O)cc(C(F)(F)F)n(C)c3=O)cc12 [Compound 2, Methyl {{2-{5-[3,6-dihydro-3-methyl-4-(trifluoromethyl) -2,6-dioxo-1(2H)-pyrimidinyl]-1,2-benzisothiazol-3-yl]-p-tolyl}oxy}acetate]
- herbicidal effect rating ([1]; 0.1250 kg/ha): 9.0
- herbicidal effect rating ([1]; 0.2500 kg/ha): 9.0
- herbicidal effect rating ([1]; 0.5000 kg/ha): 9.0
- herbicidal effect rating ([2]; 0.0313 kg/ha): 9.0
- herbicidal effect rating ([2]; 0.0625 kg/ha): 9.0
- herbicidal effect rating ([2]; 0.1250 kg/ha): 9.0
- herbicidal effect rating ([2]; 0.2500 kg/ha): 9.0
- herbicidal effect rating ([2]; 0.5000 kg/ha): 9.0
- herbicidal effect rating ([3]; 0.0313 kg/ha): 8.0
- herbicidal effect rating ([3]; 0.0625 kg/ha): 9.0
- herbicidal effect rating ([3]; 0.1250 kg/ha): 9.0
- herbicidal effect rating ([3]; 0.2500 kg/ha): 9.0
- herbicidal effect rating ([3]; 0.5000 kg/ha): 9.0
- herbicide rating (0-9) ([4]; 0.0630 kg/ha): 9.0
- herbicide rating (0-9) ([4]; 0.2500 kg/ha): 9.0
- herbicide rating (0-9) ([5]; 0.0630 kg/ha): 7.2
- herbicide rating (0-9) ([5]; 0.2500 kg/ha): 9.0
- herbicide rating (0-9) [6]: 9.0
- herbicide rating (0-9) ([7]; 0.0630 kg/ha): 7.8
- herbicide rating (0-9) ([7]; 0.2500 kg/ha): 9.0
- herbicide rating (0-9) ([8]; 0.0630 kg/ha): 9.0
- herbicide rating (0-9) ([8]; 0.2500 kg/ha): 9.0
- herbicide rating (0-9) ([9]; 0.0630 kg/ha): 9.0
- herbicide rating (0-9) ([9]; 0.2500 kg/ha): 9.0
- herbicide rating (0-9) [10]: 9.0
- herbicidal effect rating ([11]; 0.0313 kg/ha): 7.0
- herbicidal effect rating ([11]; 0.0625 kg/ha): 9.0
- herbicidal effect rating ([11]; 0.1250 kg/ha): 9.0
- herbicidal effect rating ([11]; 0.2500 kg/ha): 9.0
- herbicidal effect rating ([11]; 0.5000 kg/ha): 9.0
- herbicide rating (0-9) [12]: 8.3
- herbicide rating (0-9) [13]: 9.0
- herbicidal effect rating ([14]; 0.1250 kg/ha): 7.0
- herbicidal effect rating ([14]; 0.2500 kg/ha): 9.0
- herbicidal effect rating ([14]; 0.5000 kg/ha): 9.0
- herbicide rating (0-9) [15]: 5.6
- herbicidal effect rating ([16]; 0.0313 kg/ha): 0.0
- herbicidal effect rating ([16]; 0.0625 kg/ha): 0.0
- herbicidal effect rating ([16]; 0.1250 kg/ha): 2.0
- herbicidal effect rating ([16]; 0.2500 kg/ha): 4.0
- herbicidal effect rating ([16]; 0.5000 kg/ha): 9.0
- herbicidal effect rating ([17]; 0.1250 kg/ha): 9.0
- herbicidal effect rating ([17]; 0.2500 kg/ha): 9.0
- herbicidal effect rating ([17]; 0.5000 kg/ha): 9.0
- herbicide rating (0-9) ([18]; 0.0630 kg/ha): 6.5
- herbicide rating (0-9) ([18]; 0.2500 kg/ha): 9.0

Structure (SMILES): COc1cc(C)ccc1-c1nsc2ccc(-n3c(=O)cc(C(F)(F)F)n(C)c3=O)cc12 [Compound 7, 3-[3-(2-Methoxy-p-tolyl)-1,2-benzisothiazol-5-yl]-1-methyl-6-(trifluoromethyl)-2,4(1H,3H)-pyrimidinedione]
- herbicidal effect rating ([1]; 0.1250 kg/ha): 9.0
- herbicidal effect rating ([1]; 0.2500 kg/ha): 9.0
- herbicidal effect rating ([1]; 0.5000 kg/ha): 9.0
- herbicidal effect rating ([2]; 0.0313 kg/ha): 9.0
- herbicidal effect rating ([2]; 0.0625 kg/ha): 9.0
- herbicidal effect rating ([2]; 0.1250 kg/ha): 9.0
- herbicidal effect rating ([2]; 0.2500 kg/ha): 9.0
- herbicidal effect rating ([2]; 0.5000 kg/ha): 9.0
- herbicidal effect rating ([3]; 0.0313 kg/ha): 9.0
- herbicidal effect rating ([3]; 0.0625 kg/ha): 9.0
- herbicidal effect rating ([3]; 0.1250 kg/ha): 9.0
- herbicidal effect rating ([3]; 0.2500 kg/ha): 9.0
- herbicidal effect rating ([3]; 0.5000 kg/ha): 9.0
- herbicide rating (0-9) ([4]; 0.2500 kg/ha): 9.0
- herbicide rating (0-9) ([5]; 0.2500 kg/ha): 7.0
- herbicide rating (0-9) [6]: 9.0
- herbicide rating (0-9) ([7]; 0.2500 kg/ha): 6.5
- herbicide rating (0-9) ([8]; 0.2500 kg/ha): 9.0
- herbicide rating (0-9) ([9]; 0.2500 kg/ha): 8.0
- herbicide rating (0-9) [10]: 9.0
- herbicidal effect rating ([11]; 0.0313 kg/ha): 9.0
- herbicidal effect rating ([11]; 0.0625 kg/ha): 9.0
- herbicidal effect rating ([11]; 0.1250 kg/ha): 9.0
- herbicidal effect rating ([11]; 0.2500 kg/ha): 9.0
- herbicidal effect rating ([11]; 0.5000 kg/ha): 9.0
- herbicide rating (0-9) [12]: 9.0
- herbicide rating (0-9) [13]: 9.0
- herbicidal effect rating ([14]; 0.1250 kg/ha): 9.0
- herbicidal effect rating ([14]; 0.2500 kg/ha): 9.0
- herbicidal effect rating ([14]; 0.5000 kg/ha): 9.0
- herbicide rating (0-9) [15]: 7.0
- herbicidal effect rating ([16]; 0.0313 kg/ha): 6.0
- herbicidal effect rating ([16]; 0.0625 kg/ha): 8.0
- herbicidal effect rating ([16]; 0.1250 kg/ha): 9.0
- herbicidal effect rating ([16]; 0.2500 kg/ha): 9.0
- herbicidal effect rating ([16]; 0.5000 kg/ha): 9.0
- herbicidal effect rating ([17]; 0.1250 kg/ha): 9.0
- herbicidal effect rating ([17]; 0.2500 kg/ha): 9.0
- herbicidal effect rating ([17]; 0.5000 kg/ha): 9.0
- herbicide rating (0-9) ([18]; 0.2500 kg/ha): 9.0

Structure (SMILES): COC(=O)COc1cc(C)ccc1-c1nsc2ccc(-n3c(=O)cc(C(F)(F)F)n(C)c3=O)cc12 [Compound 8, Methyl {{6-{5-[3,6-dihydro-3-methyl-4-(trifluoromethyl)-2,6-dioxo-1(2H)-pyrimidinyl]-1,2-benzisothiazol-3-yl}-m-tolyl}oxy}acetate]
- herbicidal effect rating ([1]; 0.1250 kg/ha): 9.0
- herbicidal effect rating ([1]; 0.2500 kg/ha): 9.0
- herbicidal effect rating ([1]; 0.5000 kg/ha): 9.0
- herbicidal effect rating ([2]; 0.0313 kg/ha): 9.0
- herbicidal effect rating ([2]; 0.0625 kg/ha): 9.0
- herbicidal effect rating ([2]; 0.1250 kg/ha): 9.0
- herbicidal effect rating ([2]; 0.2500 kg/ha): 9.0
- herbicidal effect rating ([2]; 0.5000 kg/ha): 9.0
- herbicidal effect rating ([3]; 0.0313 kg/ha): 9.0
- herbicidal effect rating ([3]; 0.0625 kg/ha): 9.0
- herbicidal effect rating ([3]; 0.1250 kg/ha): 9.0
- herbicidal effect rating ([3]; 0.2500 kg/ha): 9.0
- herbicidal effect rating ([3]; 0.5000 kg/ha): 9.0
- herbicide rating (0-9) ([4]; 0.2500 kg/ha): 9.0
- herbicide rating (0-9) ([5]; 0.2500 kg/ha): 9.0
- herbicide rating (0-9) [6]: 9.0
- herbicide rating (0-9) ([7]; 0.2500 kg/ha): 8.5
- herbicide rating (0-9) ([8]; 0.2500 kg/ha): 9.0
- herbicide rating (0-9) ([9]; 0.2500 kg/ha): 9.0
- herbicide rating (0-9) [10]: 9.0
- herbicidal effect rating ([11]; 0.0313 kg/ha): 9.0
- herbicidal effect rating ([11]; 0.0625 kg/ha): 9.0
- herbicidal effect rating ([11]; 0.1250 kg/ha): 9.0
- herbicidal effect rating ([11]; 0.2500 kg/ha): 9.0
- herbicidal effect rating ([11]; 0.5000 kg/ha): 9.0
- herbicide rating (0-9) [12]: 9.0
- herbicide rating (0-9) [13]: 9.0
- herbicidal effect rating ([14]; 0.1250 kg/ha): 9.0
- herbicidal effect rating ([14]; 0.2500 kg/ha): 9.0
- herbicidal effect rating ([14]; 0.5000 kg/ha): 9.0
- herbicide rating (0-9) [15]: 9.0
- herbicidal effect rating ([16]; 0.0313 kg/ha): 6.0
- herbicidal effect rating ([16]; 0.0625 kg/ha): 9.0
- herbicidal effect rating ([16]; 0.1250 kg/ha): 9.0
- herbicidal effect rating ([16]; 0.2500 kg/ha): 9.0
- herbicidal effect rating ([16]; 0.5000 kg/ha): 9.0
- herbicidal effect rating ([17]; 0.1250 kg/ha): 9.0
- herbicidal effect rating ([17]; 0.2500 kg/ha): 9.0
- herbicidal effect rating ([17]; 0.5000 kg/ha): 9.0
- herbicide rating (0-9) ([18]; 0.2500 kg/ha): 9.0
